Laboratory results published in US9089565B2, “Compositions and methods for causing neurite outgrowth” (MEDICAL RESEARCH COUNCIL, priority 2009, dated 2015).

System: RA-treated SH-SY5Y cells
Assay: Neurite outgrowth of RA-treated SH-SY5Y cells
Format: cell-based, human
Description: FIG. 1. BDNF promotes neurite outgrowth of RA-treated SH-SY5Y, and induces phosphorylation of NgR1. (A) SH-SY5Y cells were incubated with indicated reagents. Cell images were taken with phase contrast microscopy. (B) Number of cells extending neurite-like structures of more than 40 μm and total cell number were counted from images taken in (A). More than 300 cells were examined in each sample. The proportion of cells extending neurite-like structures of more than 40 μm was indicated as a percentage of total cell number. An average of three experiments is shown. Error bars indicate S. E. between experiments. Data were analysed with student's t test. (C) Whole cell extracts were prepared from RA-treated SH-SY5Y cells after incubation with or without BDNF for 24 hours, and were analysed by SDS-PAGE. Immunoblotting was performed with the indicated antibodies. (D) Whole cell extract prepared from cells treated with both RA and BDNF was incubated with the indicated reagents for 1 hour at 37° C. Immunoblotting was performed with anti-NgR1 antibody. (E) RA-treated SH-SY5Y cells were incubated with BDNF in the presence or absence of one of the following: PKC inhibitor—500 nM Gö6983 or Gö6976; PKA inhibitor—2 μM KT5720 or a PKA inhibitor peptide 14-22; or either 500 nM or 1 μM of a casein kinase inhibitor, for 24 hours. Whole cell extracts prepared from these cells were analysed by SDS-PAGE. Immunoblotting was performed with anti-NgR1 antibody.
FIG. 2. CK2 promotes neurite outgrowth of RA-treated SH-SY5Y cells without BDNF. (A) RA-treated SH-SY5Y cells were incubated with the indicated reagents for 24 hours. Cell images were taken with phase contrast microscopy. (B) Number of cells extending neurite-like structures of more than 40 μm and total cell number were counted from images taken in (A). More than 300 cells were examined in each sample. Calculation was done as FIG. 1B. Result of student's t test between RA alone and RA+CK II+ATP was p=0.0014. (C) Myc-tagged wild type and mutant versions of NgR1 were over-expressed in SH-SY5Y cells. The cells were treated with RA, CK2 and ATP. Over-expressed NgR1-Myc was detected with anti-Myc antibody. (D) SH-SY5Y cells over-expressing 281S/A mutant NgR1-Myc were incubated with RA and NEP1-40. (E) SH-SY5Y cells over-expressing 281S/D mutant NgR1-Myc were treated as (C).
After fixation, beta-tubulin III was detected with anti-beta-tubulin III antibody. B, Wild type or 281S/A mutant NgR1-Myc was over-expressed in SH-SY5Y cells. After 5 days treatment with RA, these cells were incubated with 500 U/ml PKA and 500 nM (74 kBq/ml) ATP. Then, NgR1-Myc was immuno-precipitated and analysed with SDS-PAGE. […] NgR1-Myc was detected with anti-Myc antibody. […]

[1] = RA-treated SH-SY5Y, substance alone, 24 hours

With `Nc1ncnc2c1ncn2[C@@H]1O[C@H](COP(=O)(O)OP(=O)(O)OP(=O)(O)O)[C@@H](O)[C@H]1O` [ATP] the neurite outgrowth [1] was “Neither addition of ATP alone nor CK2 alone to the culture medium induced neurite outgrowth”.

“NEP1-40: a competitive inhibitor of Nogo-66 binding to NgR1 (MEDLDQSPLVSSSDSPPRPQPAFKYQFVREPEDEEEEEEE; Nogo-66 residues 1-40; UniProt Q9NQC3 1-40, looked up, fragment) [reference compound]” was tested, and the neurite outgrowth [1] was “promoted neurite outgrowth” and the neurite outgrowth (cells over-expressing 281S/A mutant NgR1, NEP1-40 for 24 hours) was “showed neurite outgrowth”.

B1: BDNF: brain-derived neurotrophic factor, member of the neurotrophin nerve growth factor family, purchased from Merck (protein, UniProt P23560 19-247, looked up)
Neurotrophic factor BDNF …: APMKEANIRGQGGLAYPGVRTHGTLESVNGPKAGSRGLTSLADTFEHVIEELLDEDQKVRPNEENNKDADLYTSRVMLSSQVPLEPPLLFLLEEYKNYLDAANMSMRVRRHSDPARRGELSVCDSISEWVTAADKKTAVDMSGGTVTVLEKVPVSKGQLKQYFYETKCNPMGYTKEGCRGIDKRHWNSQCRTTQSYVRALTMDSKKRIGWRFIRIDTSCVCTLTIKRGR
B1 was tested, and the neurite outgrowth [1] was “efficient neurite outgrowth”.
